From patent publication US10869928B2, “Lyophilized preparation of cytotoxic dipeptides” (ONCOPEPTIDES AB, priority 2011, dated 2020) come the findings set out here.

SMILES strings stand for the structures. Counter-ions that a name gives are not always drawn.

Series [1] in a line: Stability of melphalan flufenamide dissolved in DMA in a glucose solution. The following applies: dissolved in DMA (dimethylacetamide) in a glucose solution.
Series [2] is described as follows: Determination of dissolution rate (Example 5). It counts as physicochemical. The following applies: Solution: 5% glucose + Polysorbate 80. As for the experimental part:
A 5% glucose solution was added to each plastic vial containing J1. The vials were shaken and filtered at different time-points. The filtrate was transferred to glass vials and the amount of dissolved J1 was determined by HPLC.

Series [3] can be described thus: Stability in aqueous solutions. It counts as physicochemical.

The compound `CCOC(=O)[C@H](Cc1ccc(F)cc1)NC(=O)[C@@H](N)Cc1ccc(N(CCCl)CCCl)cc1` [Experiment J1, melphalanyl-L-p-fluorophenylalanine ethyl ester hydrochloride] yielded a degradation in series [1] of 7 % degradation/h. Also, in series [2], the “Time (min) to reach steady state dissolution” value was 1 to 2 min. For the same compound, the hydrolysis in water result in series [3] (water) is given as “quickly hydrolyzed”.

With `N[C@@H](Cc1ccc(N(CCCl)CCCl)cc1)C(=O)O` [Melphalan, p-[bis-(2-chloroethyl)amino]phenylalanine, reference compound], the “times more stable in aqueous solutions compared to J1” value in series [3] (aqueous solutions, relative to J1) is 10,000 times.
